From patent US20230372382A1, “USE OF ADENOSINE DIPHOSPHATE RIBOSE FOR ADJUVANT THERAPY WITH RADIATION AND/OR ANTI-CANCER TREATMENT” (PearlsInMires Co., Ltd., priority 2021, published 2023)

Tests used:
[1] = test system: Breast cancer (MDA-MB-231) cells; assay: Xenograft model, combination with radiation, tumor volume; assay type: in vivo, BALB/c nude mice; details: MDA-MB-231 xenograft
Method: Brain cancer (U-87MG), pancreatic cancer (AsPC-1), breast cancer (MDA-MB-231), or kidney cancer (Caki-1) cells (1×10^7 cells) were inoculated into 5-week-old BALB/c nude mice on the back flank, respectively. Then, when tumors were grown to a volume of approximately 150 mm^3, the mice were divided into three groups: the control group (Control), 2 Gy dose of radiation alone, and a combination administration of 2 Gy dose of radiation+10 mg/kg of ADP-ribose (subcutaneous administration, 3 times a week). The irradiation was performed with an X-Rad 320 irradiator (Precision X-ray, North Branford, CT, USA), wherein the mice were placed by maintaining an appropriate distance from the radiation source for irradiation with a predetermined radiation dose. A lead shield was used to protect the body parts or organs from exposure to radiation, other than the cancerous part of the mouse. The irradiation was performed with a total of 2 Gy of radiation fractionated into two doses of 1 Gy each (for 2 days) at a dose rate of 300 kVp and 150 cGy/min using an X-ray beam filter composed of 12.5 mA and 2.0 mm Al. The tumor size was measured every 6 days using a digital caliper, and the results of changes in tumor volume were compared by the group.
Breast cancer (MDA-MB-231) cells (1×10^7) were inoculated into 5-week-old BALB/c nude mice on the back flank, and the mice were divided into three groups: the control group (Control), 2 Gy dose of radiation alone, and combination administration of 2 Gy dose radiation+20 mg/kg of ADP-ribose. When the tumors were grown to a volume of approximately 150 mm^3, 2 Gy dose of radiation was irradiated twice at 1 Gy each, and 20 mg/kg of ADP-ribose was injected subcutaneously 3 times a week. The tumor size was measured using a digital caliper, and the results of changes in tumor volume were compared by the group.

HCT116 cells = assay: Cell death by combination treatment of ADP-ribose and radiation (MTT); assay type: cell-based; details: HCT116, 16 μM ADP-ribose in combination with 2 Gy radiation, 24 hours, P<0.001; 2 Gy alone about 90.3%
Method: 3×10^3 Brain cancer (U-87MG), lung cancer (H1975), pancreatic cancer (Aspc-1), liver cancer (Hep G2), breast cancer (MDA-MB-231), colon cancer (HCT116), and kidney cancer (Caki-1) cells were cultured in a 96-well plate for 24 hours under conditions of 37° C. and 5% CO2, treated with ADP-ribose or 2 or 5 Gy radiation alone or in combination with ADP-ribose and 2 Gy radiation, and cultured for 24 hours under conditions of 37° C. and 5% CO2 again. Then, 10 μl of 3-(4,5-dimethylthiazol-2-yl)-2,5-diphenyltetrazolium bromide reagent was added to each well and reacted for 1 hour. After the reaction was completed, the reagent was removed, 200 μl of dimethyl sulfoxide was added to each well, and the absorbance was measured to compare the degree of cell death.
3×10^3 HCT116 cells were cultured in a 96-well plate for 24 hours under conditions of 37° C. and 5% CO2, treated with 16 μM of ADP-ribose and 2 or 5 Gy dose of radiation individually or in combination, and cultured for 24 hours under conditions of 37° C. and 5% CO2 again. Then, 10 μl of 3-(4,5-dimethylthiazol-2-yl)-2,5-diphenyltetrazolium bromide reagent was added to each well and reacted for 1 hour. After the reaction was completed, the reagent was removed, 200 μl of dimethyl sulfoxide was added to each well, and the absorbance was measured to confirm cell viability.

[2] = test system: Breast cancer (MDA-MB-231) cells; assay: Cell death by combination treatment with anti-cancer drug (MTT); assay type: cell-based; details: Homo sapiens, MDA-MB-231, 24 h
Method: 3×10^3 Brain cancer (U-87MG), lung cancer (H1975), pancreatic cancer (Aspc-1), liver cancer (Hep G2), breast cancer (MDA-MB-231), and colon cancer (HCT116) cells were cultured in a 96-well plate for 24 hours under conditions of 37° C. and 5% Ca2, respectively. […] After the treatment was terminated, the cells were cultured for 24 hours under conditions of 37° C. and 5% CO2 again, 10 μl of 3-(4,5-dimethylthiazol-2-yl)-2,5-diphenyltetrazolium bromide reagent was added to each well and reacted for 1 hour. After the reaction was completed, the reagent was removed, 200 μl of dimethyl sulfoxide was added to each well, and the absorbance was measured to compare the degree of cell death.
(§3) Then, 10 μl of 3-(4,5-dimethylthiazol-2-yl)-2,5-diphenyltetrazolium bromide reagent was added to each well and reacted for 1 hour. After the reaction was completed, the reagent was removed, 200 μl of dimethyl sulfoxide was added to each well, and the absorbance was measured to confirm cell viability.

Caki-1 cells = assay: Cancer cell death verification (MTT cell viability); assay type: cell-based
Method: 3×10^3 Brain cancer (U-87MG), lung cancer (H1975), pancreatic cancer (Aspc-1), liver cancer (Hep G2), breast cancer (MDA-MB-231), colon cancer (HCT116), kidney cancer (Caki-1), gastric cancer (SNU-1) and ovarian cancer (OVCAR-3) cells were cultured in a 96-well plate under conditions of 37° C. and 5% CO2 for 24 hours, and then each cancer cell was treated with ADP-ribose at each concentration. After culturing for 24 hours under conditions of 37° C. and 5% CO2 again, 10 μl of 3-(4,5-dimethylthiazol-2-yl)-2,5-diphenyltetrazolium bromide reagent was added to each well and reacted for 1 hour. After the reaction was completed, the reagent was removed, 200 μl of dimethyl sulfoxide was added to each well, and the absorbance was measured to determine the concentration of half-lethality and maximum lethality compared to untreated cells.
as §3

[3] = test system: Lung cancer (H1975) cells; assay: Xenograft model, combination with anti-cancer drug, tumor volume; assay type: in vivo, BALB/c nude mice
Method: (§1) Brain (U-87MG), lung (H1975), pancreatic (AsPC-1), or liver (Hep G2) cells (1×10^7 cells) were inoculated into 5-week-old BALB/c nude mice on the back flank, respectively. Then, when tumors were grown to a volume of approximately 150 mm^3, the mice were divided into the control group (control), an anti-cancer drug alone treatment group, and a combination treatment group. […] The tumor size was measured every 6 days using a digital caliper, and the results of changes in tumor volume were compared by the group.
Lung cancer (H1975) cells (1×10^7) were inoculated into 5-week-old BALB/c nude mice on the back flank, and the mice were divided into three groups: the control group (Control), single oral administration of 1 mg/kg of osimertinib, and combination administration of osimertinib+10 mg/kg of ADP-ribose. When the tumors were grown to a volume of approximately 150 mm^3, osimertinib was administered orally twice a week, and ADP-ribose at 10 mg/kg was injected subcutaneously 3 times a week. The tumor size was measured using a digital caliper, and the results of changes in tumor volume were compared by the group.

[4] = test system: human colon fibroblast (CCD-18Co); assay: Toxicity in normal cells (MTT assay); assay type: cell-based; details: ADP-ribose 25, 50, 100 ul, 24, 48 and 72 hours
Method: (§2) As normal cells, human colon fibroblast (CCD-18Co) and human dermal papilla cell (HDPC) cells were used. […] Then, the cells were divided into a total of 4 groups: ADP-ribose untreated group (Untreated), and treated groups (treated with increased concentrations of 25, 50, 100 ul). Cell viability was compared by MTT assay after 24, 48, and 72 hours of drug treatment.

[5] = test system: human dermal papilla cell (HDPC); assay: Toxicity in normal cells (MTT assay); assay type: cell-based; details: ADP-ribose 25, 50, 100 ul, 24, 48 and 72 hours
Method: as §2

[6] = test system: Liver cancer (Hep G2) cells; assay: Xenograft model, combination with anti-cancer drug, tumor volume; assay type: in vivo, BALB/c nude mice
Method: as §1
Liver cancer (Hep G2) cells (1×10^7) were inoculated into 5-week-old BALB/c nude mice on the back flank, and the mice were divided into three groups: the control group (Control), single oral administration of 10 mg/kg of sorafenib, and combination administration of sorafenib+10 mg/kg of ADP-ribose. When the tumors were grown to a volume of approximately 150 mm^3, sorafenib was administered orally 5 times a week, and ADP-ribose at 10 mg/kg was injected subcutaneously 3 times a week. The tumor size was measured using a digital caliper, and the results of changes in tumor volume were compared by the group.

[7] = test system: Liver cancer (Hep G2) cells; assay: Cell death by combination treatment with anti-cancer drug (MTT); details: Homo sapiens, HepG2, 24 h, read-out: viability of cancer cells
Method: 3×10^3 Liver cancer (Hep G2) cells were cultured in a 96-well plate for 24 hours under conditions of 37° C. and 5% CO2, treated with ADP-ribose at a concentration of 1.6 μM and sorafenib at 1 μM, individually or in combination, and cultured for 24 hours under conditions of 37° C. and 5% CO2 again. Then, 10 μl of 3-(4,5-dimethylthiazol-2-yl)-2,5-diphenyltetrazolium bromide reagent was added to each well and reacted for 1 hour. After the reaction was completed, the reagent was removed, 200 μl of dimethyl sulfoxide was added to each well, and the absorbance was measured to confirm cell viability.

[8] = ADP-ribose 20 mg/kg s.c. + 2 Gy radiation, P<0.001
[9] = ADP-ribose 10 mg/kg s.c. in combination with osimertinib 1 mg/kg, P<0.001
[10] = ADP-ribose 10 mg/kg s.c. in combination with sorafenib 10 mg/kg, P<0.001

Nc1ncnc2c1ncn2[C@@H]1O[C@H](COP(=O)(O)OP(=O)(O)OC[C@H]2O[C@@H](O)C(O)C2O)C(O)C1O (some centres unmarked) [ADP-ribose, adenosine diphosphate ribose]
reduction of tumor volume compared to the control group [1, 8]: about 72.6%
reduction of tumor volume compared to the group treated with 2 Gy dose of radiation alone [1, 8]: about 56.1%
final tumor volume ([1]; ADP-ribose 20 mg/kg subcutaneous 3 times a week + 2 Gy radiation, control about 2336.1, 2 Gy alone about 1459.6): about 640.4 mm^3
survival rate of cancer cells (HCT116 cells): about 14%
viability at 3.2 µM [2]: ~20%
maximum lethal dose (concentration at which almost all cells were killed) (Caki-1 cells; Caki-1, 24 hours, MTT): 32 µM
cancer cell growth under a microscope (Caki-1 cells; Caki-1, ADP-ribose treated vs control, FIG. 8A): inhibited from growing and killed
IC50 (Caki-1 cells; Homo sapiens, CAKI-1, 24 h, read-out: half-lethal dose (concentration at which about half of the cells were killed)): ~16 µM
reduction of tumor volume compared to the control group [3, 9]: about 81%
reduction of tumor volume compared to the group treated with osimertinib alone [3, 9]: about 77%
final tumor volume ([3]; ADP-ribose 10 mg/kg subcutaneous 3 times a week in combination with osimertinib 1 mg/kg, control about 2265.5): about 424.7 mm^3
toxicity to normal cells (cell viability, MTT assay) [4]: no toxicity was observed
toxicity to normal cells (cell viability, MTT assay) [5]: no toxicity was observed
reduction of tumor volume compared to the control group [6, 10]: about 76%
reduction of tumor volume compared to the group treated with sorafenib alone [6, 10]: about 70%
final tumor volume ([6]; ADP-ribose 10 mg/kg subcutaneous 3 times a week in combination with sorafenib 10 mg/kg, control about 2322.4): about 546 mm^3
viability at 1.6 µM [7]: ~0.9%
